Experimental data published in patent US20110245173A1, “Long-Acting GLP-1 Derivatives, and Methods of Treating Cardiac Dysfunction” (priority 2008, published 2011).

What was measured:
[1] = Pharmacokinetics in plasma after single bolus intravenous administration to rats; design: species or system Sprague Dawley rats; details: rat, in vivo; for AUC(0-inf) / AUC(0-t) / Cmax / clearance / half-life: male, Sprague Dawley
Protocol: GLP-1 (9-36) analogues containing C-terminal extensions (FIG. 2) were tested in 9 week old male Sprague Dawley rats to evaluate biological half-life as well as other pharmacokinetic properties of the analogues. Rats used in the study were acclimated to laboratory conditions for approximately 1 week prior to testing. Polypeptide analogues were prepared as solutions for intravenous administration (bolus injection in the jugular vein) at concentrations of 0.15 mg/mL and 1.5 mg/mL in appropriate buffers. The compounds were then injected while the animals were still under anesthesia. Blood samples were taken form each animal at no more than 5 occasions. Following dose administration, blood samples (0.3 to 0.4 mL) were obtained by jugular venipuncture (lithium heparin was used as an anticoagulant) at selected time points (0, 2.5, 5, 10 and 15 minutes or 30, 45, 60, 120 and 240 minutes). The samples were analyzed for parent drug by LC-MS/MS. Numerical data was subjected to calculation of group mean values, standard deviations and coefficients of variation (expressed as a percent), where appropriate. The pharmacokinetic analysis (non-compartmental) of plasma concentration was performed using the PhAST software program (Version 2.3-004, Pheonix International Life Sciences Inc.). The highest experimental concentration was considered the peak concentration (Cmax; observed value). Whenever possible, the observed terminal phase rate constant (Kel) was calculated from the terminal 3 or more points (non-zero and non-Cmax points) of the log-linear regression. The number of points included in the regression analysis was such as to optimize r^2 value calculated for the regression. Terminal phase half-life (t1/2) was determined by dividing 0.693 by Kel. The area under the plasma concentration of each compound versus time-curve from time zero to the last quantifiable concentration (AUC0-t) was calculated by the linear trapezoidal method (Bailer, A. J., (1988) J. Pharmacokin. Biopharm., 1, 303-309). AUC0-∞, the area under the plasma concentration versus time curve from time zero to infinity, was calculated as the sum of AUC0-t plus the ratio of the last plasma concentration to Kel. Values below the limit of quantification were assigned a value of zero for pharmacokinetic analysis.

[2] = cited from earlier work

- AUC(0-inf) ([1]; 0.15 mg/kg): 65.1 ng·h/mL
- AUC(0-t) ([1]; 0.15 mg/kg): 63.8 ng·h/mL
- Cmax ([1]; 0.15 mg/kg): 1060 ng/mL
- clearance ([1]; 0.15 mg/kg): 38.4 mL/min/kg
- half-life ([1]; 0.15 mg/kg, T1/2: Terminal phase half-life): 1.64 min
- AUC(0-inf) ([1]; 1.5 mg/kg): 679 ng·h/mL
- AUC(0-t) ([1]; 1.5 mg/kg): 672 ng·h/mL
- Cmax ([1]; 1.5 mg/kg): 10600 ng/mL
- clearance ([1]; 1.5 mg/kg): 36.8 mL/min/kg
- half-life ([1]; 1.5 mg/kg, T1/2: Terminal phase half-life): 2.22 min
- half-life ([1]; 1.5 mg/kg, half-life): 1.6 to 2.2 min
- Tmax: Time to Cmax ([1]; 0.15 mg/kg): 2.50 min
- Tmax: Time to Cmax ([1]; 1.5 mg/kg): 2.50 min
SMILES: CC[C@H](C)[C@H](NC(=O)[C@H](Cc1ccccc1)NC(=O)[C@H](CCC(=O)O)NC(=O)[C@H](CCCCN)NC(=O)[C@H](C)NC(=O)[C@H](C)NC(=O)[C@H](CCC(N)=O)NC(=O)CNC(=O)[C@H](CCC(=O)O)NC(=O)[C@H](CC(C)C)NC(=O)[C@H](Cc1ccc(O)cc1)NC(=O)[C@H](CO)NC(=O)[C@H](CO)NC(=O)[C@@H](NC(=O)[C@H](CC(=O)O)NC(=O)[C@H](CO)NC(=O)[C@@H](NC(=O)[C@H](Cc1ccccc1)NC(=O)[C@@H](NC(=O)CNC(=O)[C@@H](N)CCC(=O)O)[C@@H](C)O)[C@@H](C)O)C(C)C)C(=O)N[C@@H](C)C(=O)N[C@@H](Cc1c[nH]c2ccccc12)C(=O)N[C@@H](CC(C)C)C(=O)N[C@H](C(=O)N[C@@H](CCCCN)C(=O)NCC(=O)N[C@@H](CCCNC(=N)N)C(N)=O)C(C)C [DGS70]
- half-life in vivo [2]: 2 to 4 min
